Laboratory results reported in patent US12421216B2, “Voruciclib polymorphs and methods of making and using thereof” (MEI PHARMA, INC., priority 2019, dated 2025).
Entries after “also recorded” stand apart in the source; their conditions may differ.

How the values were obtained:
Assay type in all cases: physicochemical
[1] = Physical stability upon exposure to accelerated aging conditions (AAC, 40° C./75% RH), re-analysis by HT-XRPD
[2] = Physical stability of solid forms upon drying under vacuum, HT-XRPD
Method: (§1) Amorphous voruciclib oxalate salt, generated by freeze-drying, was used to start the thermocycling experiments. Suspensions were prepared in the selected solvent systems at RT. Subsequently, the mixtures were subjected to a temperature profile. After the temperature profile, the solids were separated from the solutions by centrifugation and were dried at ambient conditions and under deep vacuum before being harvested and analyzed by HT-XRPD. The liquid phases were also dried under deep vacuum before being harvested and analyzed by HT-XRPD. All solids were exposed to AAC (40° C./75% RH, 2 days).
After the temperature profile, the solids were separated from the liquids by centrifugation and the solid phase was dried at ambient conditions and under deep vacuum (5 mbar) before being harvested and analyzed by HT-XRPD. The liquid phases were dried under deep vacuum (5 mbar) and the recovered solids were analyzed by HT-XRPD. All solids were then exposed to accelerated aging conditions (40° C./75% RH, 2 days) followed by HT-XRPD re-analysis.
as §1, with “voruciclib phosphate” for “voruciclib oxalate”, “profile. Upon completion of” for “profile. After”, “dried under” for “dried at”
After the temperature profile, the solids were separated from the liquids by centrifugation and the solid phase was dried under ambient conditions and under deep vacuum (5 mbar, 18 h) before being harvested and analyzed by HT-XRPD. The liquid phases were dried under deep vacuum (5 mbar, 18 h) and the recovered solids were analyzed by HT-XRPD. All solids were then exposed to accelerated aging conditions (40° C./75% RH, 2 days) followed by HT-XRPD re-analysis.
Amorphous voruciclib malonate salt, generated by freeze-drying, was used to start the thermocycling experiments. Suspensions were prepared in the selected solvent systems at RT and were subjected to three thermocycles between 50 and 5° C., followed by aging at 25° C. for 3 days. Upon completion of the aging time, the solids were separated from the liquids by centrifugation and they were dried at ambient conditions and under deep vacuum (5 mbar) before being harvested and analyzed by HT-XRPD.
After the temperature profile the solids were separated from the solution by centrifugation and they were dried at ambient conditions and under deep vacuum before being harvested and analyzed by HT-XRPD.

[3] = Dynamic Vapor Sorption (DVS) hygroscopicity
Method: (§2) Differences in hygroscopicity (moisture uptake) of the various forms of a solid material provided a measure of their relative stability at increasing relative humidity. Moisture sorption isotherms of small samples were obtained using a DVS-1 system from Surface Measurement Systems (London, UK); this instrument is suitable for use with a few milligrams of sample, with an accuracy of 0.1 μg. The relative humidity was varied during sorption-desorption-sorption (45-95-0-45% RH) at a constant temperature of 25° C. Weight equilibration per step was set at dm/dt <0.0002 for a minimum of 1 hour or maximum of 6 hours. Afterwards the sample was measured by HT-XRPD.
The hygroscopicity was classified according to the European Pharmacopoeia Hygroscopicity classification.
as §2, with “(40-95-0-40%” for “(45-95-0-45%”
as §2, with “use with as little as a few” for “use with a few”
The hygroscopicity of Mao1 was determined by DVS. The powder was exposed to a RH profile consisting of sorption/desorption/sorption cycles (40-95-0-40% RH) performed at 25° C. The water vapor uptake gained during the sorption half-cycle was 0.75%.

[4] = Qualitative solubility determination in water at room temperature, with observation of gel formation
Method: The aqueous solubility of Oxa2 (starting material) was assessed by the qualitative solubility determination approach. To 5.4 mg of Oxa2, water was added in steps of 50 μl until the material was dissolved (Exp. ID: SAS1). Visual inspection by the naked eye was used to decide whether complete dissolution occurred.
After the addition of 7.5 ml water, Oxa2 was not dissolved in water at room temperature. The suspension was heated to 50° C. upon which complete dissolution occurred, as indicated by a clear solution.
The aqueous solubility of Pho1 (Exp. ID: TCP23) was assessed by the qualitative solubility determination approach. To 5.6 mg of Pho1, water was added in steps of 50 μl until the material was dissolved (Exp. ID: SAS2). Visual inspection by the naked eye was used to decide whether complete dissolution occurred. After the addition of 700 μl water, Pho1 was not dissolved in water at room temperature whereas after a subsequent addition of 200 μl water (900 μl in total), the material completely dissolved.
The solubility of Mao1 in water was determined by adding small aliquots of water to the material until it was dissolved.

CN1CC[C@@H](c2c(O)cc(O)c3c(=O)cc(-c4ccc(C(F)(F)F)cc4Cl)oc23)[C@@H]1CO.O=C(O)C(=O)O [Oxa2]
Physical stability upon exposure to AAC ([1]; 40° C./75% RH, 2 days, HT-XRPD before and after): stable when exposed to advanced aging conditions; also recorded: physically stable upon exposure to AAC
Solid forms Ambient AAC ([1]; oxalate salt thermocycling, ambient-dried solids after AAC (40° C./75% RH, 2 days), HT-XRPD): Oxa2
Solid forms ML AAC ([1]; oxalate salt thermocycling, solids from evaporated mother liquor after AAC (40° C./75% RH, 2 days), HT-XRPD): Oxa2
Solid forms Vacuum AAC ([1]; oxalate salt thermocycling, vacuum-dried solids after AAC (40° C./75% RH, 2 days), HT-XRPD): Oxa2
Solid forms Vacuum ([2]; oxalate salt thermocycling solids, form after drying under deep vacuum (5 mbar, 18 h), HT-XRPD, label = ambient-dried form): Oxa2
Physical stability upon drying under deep/high vacuum ([2]; oxalate, phosphate, malonate forms, 5 mbar, 18 h): stable under vacuum conditions; also recorded: physically stable
Water uptake ([3]; DVS, 25° C./80% RH): approximately 2.4%
Hygroscopicity classification ([3]; European Pharmacopoeia classification, water uptake at 25° C./80% RH): moderately hygroscopic
Solid form recovered after DVS analysis ([3]; XRPD after sorption-desorption-sorption cycle): Oxa2 was recovered
Solubility classification in water ([4]; USP classification, room temperature): practically insoluble (solubility <0.1 mg/mL)
Solubility in water at room temperature ([4]; qualitative determination by adding aliquots of water, visual): < 100 µg/mL
Behaviour upon addition of water (gel formation) ([4]; small amount of water added to solid): No indication of gel-formation was observed
